The results in this text go back to ChEMBL document CHEMBL1201862, “PubChem BioAssay data set” (2004).

What all share (experiment): NCI tumour cell line growth inhibition, 48 h
The test system of assay [1] is NCI-H460.
In assay [2] the test system is Malme-3M.
Assay [3] concerns DU-145.
Assay [4] concerns MDA-MB-435.
In assay [5] the test system is HOP-62.
The test system of assay [6] is A498.
Assay [7] concerns SNB-19.
The subject of assay [8] is MDA-N.
Assay [9] relates to MDA-MB-231.
Assay [10] concerns T47D.
Assay [11] concerns UACC-257.
In assay [12] the test system is ACHN.
The subject of assay [13] is Hs-578T.
The subject of assay [14] is TK-10.
The test system of assay [15] is BT-549.
Assay [16] deals with SK-MEL-2.
Assay [17] relates to M19-MEL.
For assay [18], the system named is XF498.
In assay [19] the test system is DMS-114.
Assay [20] concerns KM-20L2.

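These data come from cells grown in 96-well plates and exposed to compound for 48 hours at five concentrations. At the GI50, growth is halved.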 Active and inactive are the calls of the source. No stated cut-off is given here; in the data, active = GI50 up to about 1.1 µM and inactive = higher.

Turning to `Nc1n[c-](N)[n+](=O)c(N)c1NCO`, the GI50 in assay [1], in assay [2], in [3], in assay [4], in assay [5] and in assay [6] was > 100 µM (inactive) throughout. The GI50 in assay [7], in assay [8], in assay [9], in assay [10], in [11] and in assay [12] was > 100 µM (inactive) in each case. In addition, the GI50 in assay [13], in assay [14], in assay [15] and in [16] was > 100 µM (inactive) in each case.

On to `CC1(C)OP23(NC(=O)OC2(C(F)(F)F)c2ccccc2O3)OC1(C)C` (configuration not stated), for which the GI50 in assay [17], in assay [1], in assay [2], in assay [7], in assay [18] and in [11] was > 100 µM (inactive) in each case. Besides, the GI50 in assay [12], in assay [14], in [16] and in assay [19] was > 100 µM (inactive) in each case.

For the compound `C[Si](C)(C)/C=C/CN1C(=O)CCC1=O`, the GI50 in [17], in assay [1], in assay [2], in assay [6], in [7] and in assay [18] was > 100 µM (inactive) throughout. Also, the GI50 in assay [20], in assay [12], in assay [14], in assay [16] and in [19] was > 100 µM (inactive) in each case.

For `COc1nc(SC)nc2c1cnn2C1OC(C(O)CO)C(OC)C1O` (configuration not stated), the GI50 in assay [17] was > 75.5 µM (inactive); in assay [1], 74.6 µM (inactive); in [2] it was > 100 µM (inactive); in assay [5], > 100 µM (inactive); in assay [6], > 100 µM (inactive); in [7], > 100 µM (inactive). Besides, the GI50 is > 100 µM (inactive) in assay [18]; > 85.9 µM (inactive) in assay [20]; > 75.7 µM (inactive) in assay [11]; > 100 µM (inactive) in [16]; > 80 µM (inactive) in assay [19].

Regarding `COc1cc(C2C(C(=O)O)=C(CO)Oc3cc4c(cc32)OCO4)cc(OC)c1O` (configuration not stated), the GI50 in assay [1], in assay [2], in assay [5], in [7], in assay [20] and in assay [11] was > 100 µM (inactive) in each case. The GI50 in assay [12], in assay [14] and in assay [19] was > 100 µM (inactive) each time.

In the case of `Cc1nc2ccccc2n1C(=O)c1c(F)c(F)c(F)c(F)c1F`, the GI50 in [1] is 5.09 µM (inactive); in assay [2] it was 19.8 µM (inactive); in [3], 26.5 µM (inactive); in assay [4] it was 4.99 µM (inactive); in assay [5] it was 23.9 µM (inactive); in assay [6] it was 20.3 µM (inactive). Moreover, the GI50 is 29.5 µM (inactive) in assay [7]; 8.69 µM (inactive) in assay [8]; 16.2 µM (inactive) in assay [9]; 59.8 µM (inactive) in assay [10]; 13.7 µM (inactive) in assay [11]; 22.9 µM (inactive) in assay [12]. Besides, the GI50 in [13] was 26.5 µM (inactive); in [14], 18.3 µM (inactive); in assay [15], 21 µM (inactive); in assay [16] it was 7.41 µM (inactive).

Consider `c1ccc(NN/N=N/c2ccc(-c3nc4ccccc4[nH]3)cc2)cc1`, for which the GI50 in assay [1] is 27 µM (inactive); in assay [2] it was 28.7 µM (inactive); in [3] it was 42.7 µM (inactive); in assay [4] it was 19.4 µM (inactive); in [5], 41.3 µM (inactive); in [6], 43.7 µM (inactive). Further, the GI50 in assay [7] was > 100 µM (inactive); in [8], 29.9 µM (inactive); in assay [9], 72.8 µM (inactive); in [10], 8.17 µM (inactive); in assay [11] it was 28.6 µM (inactive); in assay [12] it was 25.8 µM (inactive). In addition, the GI50 in [13] was 29.1 µM (inactive); in assay [14] it was 64.4 µM (inactive); in [15], 29.4 µM (inactive); in assay [16], 23.9 µM (inactive).

Regarding `C[N+](C)([O-])CCOc1cc2c(c3ccccc13)-c1ccccc1C2=O`, the GI50 in assay [17] is 15.1 µM (inactive); in assay [1], 9.44 µM (inactive); in assay [2], 14 µM (inactive); in assay [5], 14.2 µM (inactive); in assay [6] it was 20.3 µM (inactive); in assay [7], 13.6 µM (inactive). Moreover, the GI50 is 16.4 µM (inactive) in assay [18]; 20.1 µM (inactive) in assay [20]; 6.65 µM (inactive) in [11]; 18.4 µM (inactive) in [16]; 7.83 µM (inactive) in assay [19].

Consider `Cc1cc(C)n(C(=C(C(Cl)=C(Cl)Cl)[N+](=O)[O-])n2nc(C)cc2C)n1`, for which the GI50 in assay [1] was 3.52 µM (inactive); in [2], 2.98 µM (inactive); in [3], 4.12 µM (inactive); in [4], 2.19 µM (inactive); in assay [5], 5.04 µM (inactive); in [6] it was 2.86 µM (inactive). Also, the GI50 is 4.81 µM (inactive) in [7]; 4.06 µM (inactive) in assay [8]; 7.41 µM (inactive) in assay [9]; 4.05 µM (inactive) in assay [10]; 3.24 µM (inactive) in assay [11]; 3.21 µM (inactive) in assay [12]. Further, the GI50 is 4.66 µM (inactive) in assay [13], 3.39 µM (inactive) in assay [14], 4.56 µM (inactive) in [15] and 1.37 µM (inactive) in [16].

In the case of `CN(C)CCNC(=O)c1cccc2ccc(-c3ccc(F)cc3)nc12`, the GI50 was 4.33 µM (inactive) in assay [17]; 2.86 µM (inactive) in assay [1]; 4.9 µM (inactive) in assay [2]; 11.7 µM (inactive) in assay [5]; 7.1 µM (inactive) in [6]; 6.87 µM (inactive) in assay [7]. Also, the GI50 in assay [18] was 2.94 µM (inactive); in assay [20] it was 4.22 µM (inactive); in [11], 5.51 µM (inactive); in [16], 9.18 µM (inactive); in assay [19], 5.48 µM (inactive).

Consider `O=[N+]([O-])c1ccc2[nH]c3c(-c4ccccc4)nccc3c2c1`, for which the GI50 in assay [17] was 25.9 µM (inactive); in assay [1], 14.4 µM (inactive); in assay [2], 18.9 µM (inactive); in assay [5] it was 14.7 µM (inactive); in [6] it was 82.6 µM (inactive); in assay [7] it was 15.3 µM (inactive). Moreover, the GI50 is 29.4 µM (inactive) in assay [18]; 27.6 µM (inactive) in assay [20]; 30 µM (inactive) in assay [11]; 35 µM (inactive) in [16]; 18.9 µM (inactive) in assay [19].

As to `O=C(O)C12CCCCC1CCCC2` (configuration not stated), the GI50 in assay [17], in assay [1], in [5], in [6], in [7] and in [18] was > 100 µM (inactive) throughout. The GI50 in [20], in assay [12], in assay [14] and in [19] was > 100 µM (inactive) each time.

Take `COc1c(Br)cc(CC(N)=O)c(O)c1Br`: the GI50 in assay [17], in [2], in [5], in assay [6], in assay [7] and in assay [18] was > 100 µM (inactive) in each case. Further, the GI50 in assay [20], in [11], in assay [12], in assay [14], in [16] and in assay [19] was > 100 µM (inactive) in each case.

As for `C[C@]12CC[C@H]3[C@@H](CCC4=CC(=O)CC[C@@]43C)[C@@H]1CC[C@@H]2C(=O)COS(=O)(=O)c1ccc(Br)cc1`, the GI50 in [1] is 10.1 µM (inactive); in [2], 3.49 µM (inactive); in assay [3], 16.8 µM (inactive); in [4], 9.55 µM (inactive); in assay [5], 17 µM (inactive); in assay [6], 20.2 µM (inactive). Moreover, the GI50 in assay [7] was 19.5 µM (inactive); in assay [8], 0.379 µM (active); in assay [9], 6.49 µM (inactive); in assay [10] it was 9.35 µM (inactive); in assay [11], 13.7 µM (inactive); in [12], 10.9 µM (inactive). For the same compound, the GI50 in assay [13] was 20.4 µM (inactive); in [14], 18.3 µM (inactive); in [15] it was 10 µM (inactive); in [16], 8.38 µM (inactive).

Consider `CC(=O)Oc1ccccc1C(=O)Nc1ncc([N+](=O)[O-])s1` [NITAZOXANIDE], for which the GI50 is 17.1 µM (inactive) in [1]; 11.1 µM (inactive) in assay [2]; 20.1 µM (inactive) in assay [3]; 22.8 µM (inactive) in assay [4]; 22.3 µM (inactive) in assay [5]; 56.2 µM (inactive) in [6]. The GI50 in assay [7] is 17.9 µM (inactive); in assay [8] it was 27.3 µM (inactive); in assay [9] it was 21.8 µM (inactive); in assay [10] it was 13.7 µM (inactive); in assay [11] it was 17.2 µM (inactive); in [12], 20.4 µM (inactive). Further, the GI50 in [13] was 9.2 µM (inactive); in assay [14] it was 16.1 µM (inactive); in assay [15], 14.4 µM (inactive); in assay [16] it was 16.3 µM (inactive).
